Assay results taken from PMC11882969 (Nature Communications, 2025).
“And” between values parts separate entries of the source, which are not always exact repeats. Identical values can stand only once.

Experiments:
Format in all cases: cell-based
[1] = biological target: panel of 320 non-olfactory GPCRs (Homo sapiens, UniProt Q99680)
[2] = biological target: panel of 320 non-olfactory GPCRs (Homo sapiens, UniProt Q969N4)
[3] = biological target: panel of 320 non-olfactory GPCRs (Homo sapiens, UniProt P30550)
[4] = biological target: panel of 320 non-olfactory GPCRs (Homo sapiens, UniProt Q9Y5X5)
[5] = biological target: panel of 320 non-olfactory GPCRs (Homo sapiens, UniProt Q92633)
[6] = biological target: panel of 320 non-olfactory GPCRs (Homo sapiens, UniProt Q96P68)
[7] = biological target: panel of 320 non-olfactory GPCRs (Homo sapiens, UniProt Q8TDS4)
[8] = biological target: panel of 320 non-olfactory GPCRs (Homo sapiens, UniProt P21452)
[9] = biological target: panel of 320 non-olfactory GPCRs (Homo sapiens, UniProt P08172)
[10] = biological target: panel of 320 non-olfactory GPCRs (Homo sapiens, UniProt P30556)
[11] = biological target: panel of 320 non-olfactory GPCRs (Homo sapiens, UniProt P41597)
[12] = biological target: panel of 320 non-olfactory GPCRs (Homo sapiens, UniProt P41968)
[13] = biological target: panel of 320 non-olfactory GPCRs (Homo sapiens, UniProt O00254)
[14] = biological target: panel of 320 non-olfactory GPCRs (Homo sapiens, UniProt P35408)
[15] = biological target: panel of 320 non-olfactory GPCRs (Homo sapiens, UniProt Q7Z7M1)
[16] = biological target: panel of 320 non-olfactory GPCRs (Homo sapiens, UniProt P21554)
[17] = biological target: panel of 320 non-olfactory GPCRs (Homo sapiens, UniProt Q9BZJ8)
[18] = biological target: panel of 320 non-olfactory GPCRs (Homo sapiens, UniProt P50052)
[19] = biological target: panel of 320 non-olfactory GPCRs (Homo sapiens, UniProt Q5UAW9)
[20] = biological target: panel of 320 non-olfactory GPCRs (Homo sapiens, UniProt O15354)
[21] = biological target: panel of 320 non-olfactory GPCRs (Homo sapiens, UniProt Q9Y5Y3)
[22] = biological target: panel of 320 non-olfactory GPCRs (Homo sapiens, UniProt Q86SM5)
[23] = biological target: panel of 320 non-olfactory GPCRs (Homo sapiens, UniProt Q96P67)
[24] = biological target: panel of 320 non-olfactory GPCRs (Homo sapiens, UniProt P28566)
[25] = biological target: panel of 320 non-olfactory GPCRs (Homo sapiens, UniProt Q9BXC1)
[26] = biological target: panel of 320 non-olfactory GPCRs (Homo sapiens, UniProt Q9NS66)
[27] = biological target: panel of 320 non-olfactory GPCRs (Homo sapiens, UniProt Q9GZQ4)
[28] = biological target: panel of 320 non-olfactory GPCRs (Homo sapiens, UniProt P25116)
[29] = biological target: panel of 320 non-olfactory GPCRs (Homo sapiens, UniProt O15218)
[30] = biological target: panel of 320 non-olfactory GPCRs (Homo sapiens, UniProt P32249)
[31] = biological target: panel of 320 non-olfactory GPCRs (Homo sapiens, UniProt P35368)
[32] = biological target: panel of 320 non-olfactory GPCRs (Homo sapiens, UniProt P35348)
[33] = biological target: panel of 320 non-olfactory GPCRs (Homo sapiens, UniProt P51810)
[34] = biological target: panel of 320 non-olfactory GPCRs (Homo sapiens, UniProt P25089)
[35] = biological target: panel of 320 non-olfactory GPCRs (Homo sapiens, UniProt Q13324)
[36] = biological target: panel of 320 non-olfactory GPCRs (Homo sapiens, UniProt Q9BZJ6)
[37] = biological target: panel of 320 non-olfactory GPCRs (Homo sapiens, UniProt O00270)

Sequence of panel of 320 non-olfactory GPCRs (Homo sapiens, UniProt Q92633) (Q92633 whole entry): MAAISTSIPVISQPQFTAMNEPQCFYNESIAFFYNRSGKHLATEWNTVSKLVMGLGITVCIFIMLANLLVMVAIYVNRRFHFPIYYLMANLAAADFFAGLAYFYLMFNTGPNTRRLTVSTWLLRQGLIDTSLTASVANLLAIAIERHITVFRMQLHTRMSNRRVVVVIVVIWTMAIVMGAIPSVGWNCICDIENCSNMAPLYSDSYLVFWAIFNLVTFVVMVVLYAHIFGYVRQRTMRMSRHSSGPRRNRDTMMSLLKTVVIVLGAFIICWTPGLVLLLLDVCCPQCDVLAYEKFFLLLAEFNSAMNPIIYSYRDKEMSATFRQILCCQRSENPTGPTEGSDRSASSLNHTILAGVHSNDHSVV
Sequence of panel of 320 non-olfactory GPCRs (Homo sapiens, UniProt Q9BXC1) (Q9BXC1 whole entry): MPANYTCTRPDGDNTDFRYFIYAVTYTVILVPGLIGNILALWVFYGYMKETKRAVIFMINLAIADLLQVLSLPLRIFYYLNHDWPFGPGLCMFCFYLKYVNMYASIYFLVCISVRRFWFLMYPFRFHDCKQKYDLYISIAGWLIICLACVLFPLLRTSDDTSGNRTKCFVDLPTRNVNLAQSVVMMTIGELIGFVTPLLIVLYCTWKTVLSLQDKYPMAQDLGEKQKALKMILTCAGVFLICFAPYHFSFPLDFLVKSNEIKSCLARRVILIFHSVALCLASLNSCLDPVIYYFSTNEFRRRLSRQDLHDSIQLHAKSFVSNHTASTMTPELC
Sequence of panel of 320 non-olfactory GPCRs (Homo sapiens, UniProt P21452) (P21452 whole entry): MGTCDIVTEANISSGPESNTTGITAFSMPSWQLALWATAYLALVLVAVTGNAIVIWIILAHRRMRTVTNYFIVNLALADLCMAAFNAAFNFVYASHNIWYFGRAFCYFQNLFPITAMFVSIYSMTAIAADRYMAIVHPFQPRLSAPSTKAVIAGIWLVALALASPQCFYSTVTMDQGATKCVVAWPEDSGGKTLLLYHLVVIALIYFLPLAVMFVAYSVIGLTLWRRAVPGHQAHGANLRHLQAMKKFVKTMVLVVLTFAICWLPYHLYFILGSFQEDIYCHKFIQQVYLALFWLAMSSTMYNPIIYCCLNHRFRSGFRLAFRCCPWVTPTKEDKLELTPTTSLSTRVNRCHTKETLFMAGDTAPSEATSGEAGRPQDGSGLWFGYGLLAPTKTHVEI
Sequence of panel of 320 non-olfactory GPCRs (Homo sapiens, UniProt Q13324) (Q13324 whole entry): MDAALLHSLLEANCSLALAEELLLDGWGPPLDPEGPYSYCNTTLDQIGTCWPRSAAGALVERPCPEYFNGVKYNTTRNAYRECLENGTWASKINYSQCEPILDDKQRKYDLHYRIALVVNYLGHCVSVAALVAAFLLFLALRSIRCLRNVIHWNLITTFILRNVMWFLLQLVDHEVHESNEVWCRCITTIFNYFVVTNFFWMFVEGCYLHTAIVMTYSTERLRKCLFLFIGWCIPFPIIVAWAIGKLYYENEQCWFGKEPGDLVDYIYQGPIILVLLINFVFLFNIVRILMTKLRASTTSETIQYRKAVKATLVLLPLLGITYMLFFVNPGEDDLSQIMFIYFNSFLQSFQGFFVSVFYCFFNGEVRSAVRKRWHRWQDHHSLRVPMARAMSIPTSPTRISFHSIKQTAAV
Sequence of panel of 320 non-olfactory GPCRs (Homo sapiens, UniProt P08172) (P08172 whole entry): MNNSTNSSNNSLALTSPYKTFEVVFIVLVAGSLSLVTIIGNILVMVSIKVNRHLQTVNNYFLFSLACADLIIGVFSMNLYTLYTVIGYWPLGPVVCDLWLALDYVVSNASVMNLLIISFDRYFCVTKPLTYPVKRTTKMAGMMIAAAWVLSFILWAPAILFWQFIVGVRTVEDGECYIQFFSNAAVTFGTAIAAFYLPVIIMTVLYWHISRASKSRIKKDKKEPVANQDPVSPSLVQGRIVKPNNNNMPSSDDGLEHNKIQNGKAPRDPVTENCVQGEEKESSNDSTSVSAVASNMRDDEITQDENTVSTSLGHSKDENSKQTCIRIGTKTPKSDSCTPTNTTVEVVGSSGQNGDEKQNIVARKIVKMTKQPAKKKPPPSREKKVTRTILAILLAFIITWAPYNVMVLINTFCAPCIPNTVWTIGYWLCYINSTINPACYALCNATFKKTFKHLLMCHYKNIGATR
Sequence of panel of 320 non-olfactory GPCRs (Homo sapiens, UniProt P30550) (P30550 whole entry): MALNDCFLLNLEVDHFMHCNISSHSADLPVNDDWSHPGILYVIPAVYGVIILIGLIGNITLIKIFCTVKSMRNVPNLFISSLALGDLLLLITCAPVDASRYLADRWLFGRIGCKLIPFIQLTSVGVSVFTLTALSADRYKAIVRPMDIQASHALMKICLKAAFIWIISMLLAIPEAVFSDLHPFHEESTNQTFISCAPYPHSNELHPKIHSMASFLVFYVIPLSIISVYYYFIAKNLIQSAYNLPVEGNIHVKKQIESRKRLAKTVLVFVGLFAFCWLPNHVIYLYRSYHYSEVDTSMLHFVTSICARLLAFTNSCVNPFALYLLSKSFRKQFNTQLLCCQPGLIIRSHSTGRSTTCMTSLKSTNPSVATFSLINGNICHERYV
Sequence of panel of 320 non-olfactory GPCRs (Homo sapiens, UniProt P25089) (P25089 whole entry): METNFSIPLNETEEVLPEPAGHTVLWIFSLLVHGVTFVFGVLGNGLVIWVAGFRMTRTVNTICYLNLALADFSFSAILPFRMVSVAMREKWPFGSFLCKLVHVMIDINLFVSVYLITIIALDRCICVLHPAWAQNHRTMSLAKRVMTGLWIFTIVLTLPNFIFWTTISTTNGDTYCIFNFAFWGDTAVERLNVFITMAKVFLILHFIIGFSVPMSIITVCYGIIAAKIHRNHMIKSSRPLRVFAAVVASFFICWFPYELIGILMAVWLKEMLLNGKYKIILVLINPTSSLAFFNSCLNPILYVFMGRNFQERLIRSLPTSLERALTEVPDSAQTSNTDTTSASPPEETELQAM
Sequence of panel of 320 non-olfactory GPCRs (Homo sapiens, UniProt Q99680) (Q99680 whole entry): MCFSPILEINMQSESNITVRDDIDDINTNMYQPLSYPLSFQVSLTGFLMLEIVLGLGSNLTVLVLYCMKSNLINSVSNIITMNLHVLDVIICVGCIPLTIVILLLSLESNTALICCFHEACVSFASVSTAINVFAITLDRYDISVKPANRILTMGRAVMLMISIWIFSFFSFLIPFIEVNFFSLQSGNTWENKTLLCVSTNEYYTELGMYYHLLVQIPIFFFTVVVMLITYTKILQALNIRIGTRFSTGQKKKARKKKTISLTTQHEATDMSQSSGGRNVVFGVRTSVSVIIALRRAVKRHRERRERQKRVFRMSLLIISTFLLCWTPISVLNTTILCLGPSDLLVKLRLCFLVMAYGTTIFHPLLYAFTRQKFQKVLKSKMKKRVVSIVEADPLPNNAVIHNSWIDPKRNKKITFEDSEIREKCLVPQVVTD
Sequence of panel of 320 non-olfactory GPCRs (Homo sapiens, UniProt P41968) (P41968 whole entry): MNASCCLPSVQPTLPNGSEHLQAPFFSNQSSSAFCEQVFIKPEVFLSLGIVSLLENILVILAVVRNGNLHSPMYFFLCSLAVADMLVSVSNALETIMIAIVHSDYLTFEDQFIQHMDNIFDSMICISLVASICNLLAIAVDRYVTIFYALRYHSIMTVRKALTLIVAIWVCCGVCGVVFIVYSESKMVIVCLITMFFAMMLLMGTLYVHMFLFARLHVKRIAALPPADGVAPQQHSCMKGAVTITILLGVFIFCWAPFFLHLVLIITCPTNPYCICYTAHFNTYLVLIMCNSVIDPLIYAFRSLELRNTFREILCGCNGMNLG
Sequence of panel of 320 non-olfactory GPCRs (Homo sapiens, UniProt P25116) (P25116 22-425): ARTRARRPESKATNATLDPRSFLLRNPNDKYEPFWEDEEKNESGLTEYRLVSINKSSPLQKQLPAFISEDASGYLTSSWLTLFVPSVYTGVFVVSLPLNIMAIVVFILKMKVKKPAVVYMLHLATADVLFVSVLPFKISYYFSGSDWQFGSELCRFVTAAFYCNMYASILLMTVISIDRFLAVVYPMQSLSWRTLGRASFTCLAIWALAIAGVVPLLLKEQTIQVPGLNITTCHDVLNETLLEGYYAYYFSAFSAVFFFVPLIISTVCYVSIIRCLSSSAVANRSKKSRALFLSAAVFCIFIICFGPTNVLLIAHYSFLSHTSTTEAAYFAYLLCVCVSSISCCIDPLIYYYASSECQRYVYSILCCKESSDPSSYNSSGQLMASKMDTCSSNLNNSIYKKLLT
Sequence of panel of 320 non-olfactory GPCRs (Homo sapiens, UniProt Q9NS66) (Q9NS66 whole entry): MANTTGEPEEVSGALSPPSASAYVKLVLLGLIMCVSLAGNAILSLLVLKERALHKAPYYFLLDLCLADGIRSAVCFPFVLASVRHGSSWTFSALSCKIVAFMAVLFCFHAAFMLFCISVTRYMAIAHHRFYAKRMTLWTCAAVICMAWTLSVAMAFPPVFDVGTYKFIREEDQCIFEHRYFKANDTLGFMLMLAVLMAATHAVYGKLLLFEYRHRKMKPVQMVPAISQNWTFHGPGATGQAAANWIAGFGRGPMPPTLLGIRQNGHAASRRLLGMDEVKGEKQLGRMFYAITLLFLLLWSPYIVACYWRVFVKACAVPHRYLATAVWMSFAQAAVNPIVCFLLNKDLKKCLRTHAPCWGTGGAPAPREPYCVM
Sequence of panel of 320 non-olfactory GPCRs (Homo sapiens, UniProt O15354) (O15354 27-613): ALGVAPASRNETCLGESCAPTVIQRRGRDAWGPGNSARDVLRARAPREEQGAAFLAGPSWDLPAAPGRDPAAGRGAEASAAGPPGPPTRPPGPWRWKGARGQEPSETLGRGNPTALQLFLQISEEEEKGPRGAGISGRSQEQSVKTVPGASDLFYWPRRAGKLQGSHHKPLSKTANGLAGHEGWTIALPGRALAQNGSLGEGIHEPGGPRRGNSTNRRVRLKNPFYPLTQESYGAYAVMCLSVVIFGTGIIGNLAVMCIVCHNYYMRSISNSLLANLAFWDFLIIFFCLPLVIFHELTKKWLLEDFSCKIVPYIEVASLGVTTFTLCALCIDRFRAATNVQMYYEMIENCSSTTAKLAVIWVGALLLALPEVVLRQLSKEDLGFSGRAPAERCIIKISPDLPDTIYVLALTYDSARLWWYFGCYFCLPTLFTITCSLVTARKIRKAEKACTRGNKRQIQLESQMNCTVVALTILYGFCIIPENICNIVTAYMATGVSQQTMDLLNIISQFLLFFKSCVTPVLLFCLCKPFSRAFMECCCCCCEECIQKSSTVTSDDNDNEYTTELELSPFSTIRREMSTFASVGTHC

SMILES | Fold of Basal RLU [1] | Fold of Basal RLU [2] | Fold of Basal RLU [3] | Fold of Basal RLU [4] | Fold of Basal RLU [5] | Fold of Basal RLU [6] | Fold of Basal RLU [7] | Fold of Basal RLU [8] | Fold of Basal RLU [9] | Fold of Basal RLU [10] | Fold of Basal RLU [11] | Fold of Basal RLU [12] | Fold of Basal RLU [13] | Fold of Basal RLU [14] | Fold of Basal RLU [15] | Fold of Basal RLU [16] | Fold of Basal RLU [17] | Fold of Basal RLU [18] | Fold of Basal RLU [19] | Fold of Basal RLU [20] | further results
Cc1cc(C(=O)NC(C)(c2ccco2)c2ccco2)nn1-c1cccc(C(F)(F)F)c1 [‘4936] | 1.3 fold and 1 fold and 1.2 fold and 0.8 fold | 1.4 fold and 0.8 fold and 1.2 fold | 0.8 fold and 0.6 fold | 0.4 and 0.6 and 0.5 and 0.3 | 1.1 fold and 1 fold and 0.9 fold | 1.3 fold and 1.5 fold and 2.1 fold | 1.2 fold and 1.1 fold and 1 fold | 1.3 fold and 1.1 fold and 1.5 fold | 0.8 fold and 0.9 fold and 0.7 fold and 0.6 fold | 1.7 and 1.2 and 1.4 and 1.8 | 0.9 and 0.8 and 1 | 1.5 and 0.9 | 1 fold and 0.7 fold and 0.9 fold and 1.1 fold | 1.2 fold and 0.9 fold and 1 fold and 1.3 fold | 0.9 and 0.6 and 1.1 | 5.5 and 5.4 and 5.6 | 0.9 and 0.8 and 1 and 1.1 | 1.1 fold and 1.2 fold and 0.9 fold | 1.4 and 1.2 and 0.9 and 0.7 | 1 fold and 1.1 fold and 1.2 fold | Fold of Basal RLU [21]: 1.6 and 1.2 and 1.5; Fold of Basal RLU [22]: 1.1 fold and 1 fold; Fold of Basal RLU [23]: 1 fold and 0.9 fold; Fold of Basal RLU [24]: 1.4 fold and 1.3 fold and 1.5 fold and 2 fold; Fold of Basal RLU [25]: 1 and 1.1 and 1.3; Fold of Basal RLU [26]: 1.1 and 1 and 1.7 and 1.3; Fold of Basal RLU [27]: 0.9 fold and 0.8 fold and 0.7 fold; Fold of Basal RLU [28]: 1.4 fold and 1.3 fold and 1.1 fold; Fold of Basal RLU [29]: 1.7 fold and 1.9 fold and 1.4 fold and 2.5 fold; Fold of Basal RLU [30]: 0.9 and 1; Fold of Basal RLU [31]: 0.9 fold and 0.8 fold; Fold of Basal RLU [32]: 0.6 and 0.7 and 1.1; Fold of Basal RLU [33]: 1 and 0.7 and 1.1; Fold of Basal RLU [34]: 1.2 fold and 1.3 fold and 1.8 fold; Fold of Basal RLU [35]: 0.6 and 0.7; Fold of Basal RLU [36]: 1.1 fold and 1.2 fold and 0.8 fold and 0.9 fold; Fold of Basal RLU [37]: 1.4 fold and 1.2 fold and 1.7 fold and 2.2 fold
COC(=O)[C@@](C)(NC(=O)c1cc(C)n(-c2cccc(C(F)(F)F)c2)n1)c1cccs1 [‘1350] | 0.7 fold and 0.9 fold and 0.8 fold | 0.6 fold and 0.8 fold and 0.4 fold | 0.8 fold and 1.2 fold | 0.3 | 1.3 fold and 1 fold and 1.2 fold | 1.1 fold and 1.3 fold and 1.6 fold | 1 fold and 0.8 fold | 1 fold and 1.1 fold and 0.9 fold | 0.9 fold and 0.6 fold and 0.8 fold | 1.1 and 1.3 and 1.2 | 0.9 and 1.4 and 1 | 1.3 and 0.9 and 1.1 and 0.7 | 0.9 fold and 1.1 fold | 1.7 fold and 1.2 fold and 1.5 fold | 1.1 and 0.9 and 1.3 and 0.7 | 5.2 and 4.9 and 5.3 | 1 and 0.7 and 0.9 and 0.8 | 1.1 fold and 1 fold | 1.2 and 1.1 and 1 and 1.6 | 1 fold and 0.8 fold and 0.9 fold and 1.3 fold | Fold of Basal RLU [21]: 0.8 and 1.2 and 1.3 and 1; Fold of Basal RLU [22]: 0.7 fold and 0.8 fold; Fold of Basal RLU [23]: 1 fold and 1.1 fold; Fold of Basal RLU [24]: 1.3 fold and 1.5 fold and 1.2 fold; Fold of Basal RLU [25]: 0.9 and 1.3 and 1; Fold of Basal RLU [26]: 1.6 and 1.3 and 1.7; Fold of Basal RLU [27]: 0.7 fold and 0.9 fold and 0.8 fold; Fold of Basal RLU [28]: 1 fold and 1.1 fold and 1.3 fold; Fold of Basal RLU [29]: 1.1 fold and 0.8 fold and 1.4 fold; Fold of Basal RLU [30]: 0.8 and 0.9 and 1; Fold of Basal RLU [31]: 1 fold and 0.8 fold and 0.6 fold and 0.9 fold; Fold of Basal RLU [32]: 1.1 and 0.9 and 1.3; Fold of Basal RLU [33]: 1.2 and 0.9 and 0.8 and 1; Fold of Basal RLU [34]: 1 fold and 1.1 fold; Fold of Basal RLU [35]: 0.8 and 0.9; Fold of Basal RLU [36]: 1.1 fold and 1 fold and 0.8 fold; Fold of Basal RLU [37]: 1.1 fold and 1.4 fold and 1.2 fold and 1.6 fold
